According to patent publication US20140235616A1, “PYRAZOLOQUINOLINONE DERIVATIVES, PREPARATION THEREOF AND THERAPEUTIC USE THEREOF” (SANOFI, priority 2011, published 2014):

How the values were obtained:
[1] = biological target: T1, human MetAP2 (Homo sapiens, UniProt P50579); experiment: MetAP2 enzymatic screening test (isolated enzyme, Met-Pro-Arg-pNa substrate, absorbance at 405 nm); assay type: biochemical; conditions: read-out: % inhibition hMETAP2 at 100 nM
T1 construct: made in house; host or cells: Sf9 insect cells (baculovirus)
T1 sequence (P50579 whole entry): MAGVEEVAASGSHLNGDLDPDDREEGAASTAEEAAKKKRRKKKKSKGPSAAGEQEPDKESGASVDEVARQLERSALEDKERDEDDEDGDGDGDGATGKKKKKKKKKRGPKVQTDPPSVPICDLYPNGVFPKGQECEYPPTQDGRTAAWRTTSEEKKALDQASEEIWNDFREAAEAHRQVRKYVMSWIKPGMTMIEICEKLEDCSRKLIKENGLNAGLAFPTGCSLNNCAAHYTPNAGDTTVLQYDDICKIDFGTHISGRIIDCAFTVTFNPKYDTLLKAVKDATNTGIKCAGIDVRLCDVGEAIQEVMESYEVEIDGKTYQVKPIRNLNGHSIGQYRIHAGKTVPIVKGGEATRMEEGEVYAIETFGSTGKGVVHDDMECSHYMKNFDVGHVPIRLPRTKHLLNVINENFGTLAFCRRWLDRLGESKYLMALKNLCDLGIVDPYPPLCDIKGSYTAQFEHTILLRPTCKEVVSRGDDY
Description: The compounds according to the invention underwent biochemical studies in order to determine their capacity to inhibit the enzyme methionine-aminopeptidase2 (enzymatic test on isolated enzyme).
MetAP2 Enzymatic Screening Test
For the enzymatic test, human MetAP2 protein was obtained from a culture supernatant of insect cells (sf9) infected with MetAP2 recombinant baculovirus.
Before performing the experiment, dialysis of the MetAP2 supernatant is performed over 24 hours at 4° C. in a buffer (10 mM Hepes, 100 mM KCl, 10% glycerol, pH 7.4) in the presence of EDTA (1 mM) over the first 12 hours.
The dialysis supernatant is recovered and manganese, used as cofactor, is added to a final concentration of 300 μM.
The enzymatic test is a test in two steps.
Consequently, the second step consists in reacting the peptides cleaved in the preceding step with a second peptidase in order to release the chromophore.

[2] = system: HUVEC cells; experiment: Test of in vitro proliferation of HUVEC cells induced with FGF-2; conditions: Homo sapiens, read-out: HUVEC Proliferation IC50 (M)
Description: Test of In Vitro Proliferation of HUVEC Cells Induced with Fibroblast Growth Factor 2 (FGF-2).
After incubation for 48 hours, the medium is aspirated and replaced with the deprivation medium RPMI1640 mentioned previously. A second stimulation is then performed. The cells are again incubated at 37° C. in the presence of CO2. After incubation for 72 hours, the medium is again aspirated and 100 μl of Cell Titer-GLO™ Luminescent Cell Viability Assay (Promega, G7571) are added over 10 minutes. The amount of ATP present in the cells, measured using a luminometer, is proportional to the number cells per well corresponding to the cell proliferation.

Cc1cc(-c2ccc3c4[nH]ncc4c(=O)n(CC(F)(F)F)c3c2)ccn1 [Compound 186, 7-(2-methylpyrid-4-yl)-5-(2,2,2-trifluoroethyl)-1,5-dihydro-4H-pyrazolo[4,3-c]quinolin-4-one]
inhibition at 0.1 µM [1]: 43%
IC50 [2]: 3.6e-07 M
